Data published in DBAASP.
≈ marks a conversion by molar mass, not a printed value. Where “and” joins values, the source holds several entries; their conditions need not be identical. Equal entries are not always repeated. Blank lines part the entries; values can stand above or below the compound they belong to.

Experiments:
Test in all cases: ≥ marks a high value that may be exact or a test limit, other limits are often not marked, values filed in µg/mL are converted to µM
[1] = test system: Candida glabrata ATCC 15126
[2] = test system: Candida tropicalis ATCC 13803
[3] = test system: Candida albicans
[4] = test system: Candida glabrata
[5] = test system: Candida tropicalis
[6] = test system: Candida albicans SC5314
[7] = test system: Candida parapsilosis ATCC 22019
[8] = test system: Candida krusei ATCC 6258
[9] = test system: Candida parapsilosis
[10] = test system: Candida glabrata 090902
[11] = test system: Klebsiella pneumoniae 08040724
[12] = test system: Escherichia coli ATCC 25922
[13] = test system: Enterococcus faecalis 981
[14] = test system: Nocardia asteroides 201118
[15] = test system: Pseudomonas aeruginosa CGMCC 1.50
[16] = test system: Staphylococcus aureus ATCC 25923
[17] = test system: Pseudomonas aeruginosa ATCC 9027
[18] = test system: Candida albicans ATCC 36232
[19] = test system: Staphylococcus aureus 1550
[20] = test system: Micrococcus luteus ATCC 9341
[21] = test system: Staphylococcus aureus ATCC 6538
[22] = test system: Escherichia coli ATCC 2592
[23] = test system: Listeria monocytogenes KCTC 3710
[24] = test system: Acinetobacter baumannii
[25] = test system: Staphylococcus aureus ATCC 29213
[26] = test system: Escherichia coli AB94012
[27] = test system: Staphylococcus epidermidis AB208187
[28] = test system: Enterococcus faecium
[29] = test system: Staphylococcus aureus P1374
[30] = test system: Acinetobacter baumannii KCTC 2508
[31] = test system: Pseudomonas aeruginosa 5018
[32] = test system: Bacillus subtilis AB91021
[33] = test system: Bacillus cereus KCTC 1012
[34] = test system: Staphylococcus aureus AB94004
[35] = test system: Staphylococcus aureus AB208193
[36] = test system: Staphylococcus epidermidis AB208188
[37] = test system: Staphylococcus aureus P1381
[38] = test system: Acinetobacter baumannii ATCC 19606
[39] = test system: Streptococcus agalactiae
[40] = test system: Micrococcus luteus AB93113
[41] = test system: Pseudomonas aeruginosa AB93066
[42] = test system: Salmonella enterica subsp. enterica serovar Typhimurium ATCC 14028
[43] = test system: Pseudomonas aeruginosa 4007
[44] = test system: Klebsiella pneumoniae KCTC 2208
[45] = test system: Pseudomonas aeruginosa 671973
[46] = test system: Pseudomonas aeruginosa 3592
[47] = test system: Salmonella typhimurium
[48] = test system: Bacillus subtilis
[49] = test system: Pseudomonas aeruginosa
[50] = test system: Escherichia coli HB101
[51] = test system: Streptococcus sobrinus ATCC 6715
[52] = test system: Streptococcus sanguinis ATCC 10556
[53] = test system: Streptococcus mutans UA159

MIC [1]: 22.5 µM (≈ 25 µg/mL) | MIC [2]: 11.3 µM (≈ 12.5 µg/mL) | MIC [3]: 63.7 µM (≈ 70.7 µg/mL) | MIC [4]: ≥ 45.1 µM | MIC [5]: 11.3 µM (≈ 12.5 µg/mL) | MIC [6]: 22.5 µM (≈ 25 µg/mL) | MIC [7]: ≥ 45.1 µM | MIC [8]: 22.5 µM (≈ 25 µg/mL) | MIC [9]: 31.9 µM (≈ 35.4 µg/mL)
Compound: CC(C)C[C@H](NC(=O)[C@H](CC(C)C)NC(=O)[C@H](Cc1ccc(O)cc1)NC(=O)[C@H](CCCCN)NC(=O)[C@@H](N)CS)C(=O)N[C@@H](CCCCN)C(=O)N[C@@H](Cc1c[nH]c2ccccc12)C(=O)N[C@@H](CCCN=C(N)N)C(=O)O [CKYLLKWR]

MIC [10]: ≥ 37.5 µM | MIC [11]: ≥ 75 µM | MIC [12]: 37.5 µM (≈ 96.6 µg/mL) | MIC [13]: 9.4 µM (≈ 24.2 µg/mL) | MIC [14]: 1.2 µM (≈ 3.09 µg/mL) | MIC [15]: ≥ 75 µM | MIC [16]: 4.7 µM (≈ 12.1 µg/mL)
Compound: CC[C@H](C)[C@H](NC(=O)[C@H](C)NC(=O)[C@@H]1CCCN1C(=O)[C@H](CC(C)C)NC(=O)[C@@H](N)Cc1ccccc1)C(=O)N[C@H](C(=O)NCC(=O)N[C@@H](CCSC)C(=O)N[C@@H](C)C(=O)N[C@@H](C)C(=O)N[C@@H](CCCCN)C(=O)N[C@H](C(=O)N[C@@H](CC(C)C)C(=O)N1CCC[C@H]1C(=O)N[C@@H](C)C(=O)N[C@@H](Cc1ccccc1)C(=O)N[C@@H](CC(C)C)C(=O)N[C@H]1CSSC[C@@H](C(=O)O)NC(=O)[C@H](CCCCN)NC(=O)[C@H](CCCCN)NC(=O)[C@H]([C@@H](C)O)NC(=O)[C@H]([C@@H](C)CC)NC(=O)[C@H](CCCCN)NC1=O)C(C)C)[C@@H](C)CC [FLPAIIGMAAKVLPAFLCKITKKC]

MIC [17]: > 80 µM | MIC [18]: ≥ 80 µM | MIC [19]: ≥ 80 µM | MIC [20]: ≥ 80 µM | MIC [21]: > 80 µM | MIC [22]: ≥ 80 µM
Compound: CC(C)[C@H](NC(=O)[C@H](CCCCN)NC(=O)[C@H](CCCCN)NC(=O)[C@H](CCCCN)NC(=O)[C@H](CCCCN)NC(=O)[C@H](CCCCN)NC(=O)[C@@H](NC(=O)[C@@H](NC(=O)[C@@H](N)Cc1ccccc1)C(C)C)C(C)C)C(=O)N[C@@H](Cc1ccccc1)C(=O)O [FVVKKKKKVF]

MIC [23]: 3.13 µM (≈ 4.84 µg/mL) | MIC [24]: 4.14 µM and 3.13 µM and 6.25 µM | MIC [17]: > 64.6 µM | MIC [25]: 6.25 µM (≈ 9.66 µg/mL) | MIC [26]: ≥ 64.6 µM | MIC [27]: 16.2 µM (≈ 25 µg/mL) | MIC [28]: 8.08 µM (≈ 12.5 µg/mL) | MIC [29]: 16.2 µM (≈ 25 µg/mL) | MIC [30]: 3.13 µM and 6.25 µM | MIC [31]: 12.5 µM (≈ 19.3 µg/mL) | MIC [32]: 8.08 µM (≈ 12.5 µg/mL) | MIC [33]: 12.5 µM (≈ 19.3 µg/mL) | MIC [34]: 8.08 µM (≈ 12.5 µg/mL) | MIC [35]: 8.08 µM (≈ 12.5 µg/mL) | MIC [36]: 16.2 µM (≈ 25 µg/mL) | MIC [37]: 8.08 µM (≈ 12.5 µg/mL) | MIC [38]: 3.23 µM (≈ 5 µg/mL) | MIC [39]: 16.2 µM (≈ 25 µg/mL) | MIC [40]: 8.08 µM (≈ 12.5 µg/mL) | MIC [41]: ≥ 64.6 µM | MIC [42]: 3.13 µM (≈ 4.84 µg/mL) | MIC [43]: 25 µM (≈ 38.6 µg/mL) | MIC [21]: 8.08 µM (≈ 12.5 µg/mL) | MIC [44]: 12.5 µM (≈ 19.3 µg/mL) | MIC [45]: 3.13 µM (≈ 4.84 µg/mL) | MIC [16]: 4.04 µM and 3.13 µM | MIC [46]: 6.25 µM (≈ 9.66 µg/mL)
Compound: CC[C@H](C)[C@H](NC(=O)CN)C(=O)N[C@@H](CC(C)C)C(=O)NCC(=O)N[C@@H](CCCCN)C(=O)N[C@@H](CC(C)C)C(=O)N[C@@H](Cc1c[nH]c2ccccc12)C(=O)N[C@@H](CCC(=O)O)C(=O)NCC(=O)N[C@H](C(=O)N[C@@H](CCCCN)C(=O)N[C@@H](CO)C(=O)N[C@H](C(=O)N[C@@H](Cc1ccccc1)C(N)=O)[C@@H](C)CC)C(C)C [GILGKLWEGVKSIF]

MIC [47]: 2.6 µM (≈ 6.7 µg/mL) | MIC [48]: 20.8 µM (≈ 53.6 µg/mL) | MIC [49]: 7.35 µM (≈ 18.9 µg/mL) | MIC [50]: 2.6 µM (≈ 6.7 µg/mL)
Compound: CC[C@H](C)[C@H](NC(=O)[C@@H](NC(=O)[C@@H]1CCCN1C(=O)[C@@H](NC(=O)[C@@H]1CCCN1C(=O)[C@H](CCCCN)NC(=O)[C@H](CCCCN)NC(=O)[C@H](CO)NC(=O)CN)C(C)C)[C@@H](C)CC)C(=O)N[C@@H](Cc1ccc(O)cc1)C(=O)N[C@H]1CSSC[C@@H](C(=O)N[C@@H](CCC(N)=O)C(=O)N[C@@H](CCCN=C(N)N)C(=O)N[C@@H](CCSC)C(=O)O)NC(=O)[C@H](CCCCN)NC(=O)CNC(=O)[C@H]([C@@H](C)O)NC(=O)[C@H](C)NC(=O)[C@H](C)NC(=O)[C@H](CCCN=C(N)N)NC(=O)[C@H](CCCN=C(N)N)NC(=O)[C@H](CC(N)=O)NC1=O [GSKKPVPIIYCNRRAATGKCQRM]

MIC [51]: ≥ 141 µM | MIC [52]: ≥ 141 µM | MIC [53]: ≥ 70.7 µM
Compound: CC(C)[C@H](NC(=O)[C@H](CCCCN)NC(=O)[C@H](CCCCN)NC(=O)[C@H](C)NC(=O)[C@H](CCCCN)NC(=O)[C@H](CCCCN)NC(=O)[C@H](Cc1ccccc1)NC(=O)[C@H](Cc1ccccc1)NC(=O)[C@H](CCCCN)NC(=O)[C@H](CCCCN)NC(=O)[C@H](Cc1c[nH]c2ccccc12)NC(=O)CN)C(=O)N[C@@H](Cc1c[nH]c2ccccc12)C(=O)N[C@@H](CCCCN)C(=O)O [GWKKFFKKAKKVWK]
